Reference: the supplement of paper PMC10331698
± gives the standard deviation of the averaged measurements.

What was measured:
Assay in all cases: level (log10 ratio to DMSO vehicle control); higher = higher biomarker level / cell amount than vehicle control
Settings in all cases: in DMSO
Perfluoroheptanoic acid = compound: O=C(O)C(F)(F)C(F)(F)C(F)(F)C(F)(F)C(F)(F)C(F)(F)F [Perfluoroheptanoic acid]
Description: (§1)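 BioMAP Diversity Plus panel of 12 human primary cell co-culture systems (3C, 4H, LPS, SAg, BT, BF4T, BE3C, CASM3C, HDF3CGF, KF3CT, MyoF, Mphg). Compounds were added 1 h before stimulation and left for 24 h (MyoF 48 h; BT 72 h for soluble read-outs or 6 d for IgG). Biomarkers were read by ELISA, cytotoxicity by SRB, PBMC viability and proliferation by Alamar Blue. Each well value was divided by the mean of 8 DMSO control wells on the same plate and log10 transformed; duplicate blinded samples were tested at 4 concentrations.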

Perfluorobutanoic acid = compound: O=C(O)C(F)(F)C(F)(F)C(F)(F)F [Perfluorobutanoic acid]
Description: as §1

[1] = compound: COC(=O)CCC(F)(F)C(F)(F)C(F)(F)C(F)(F)F [Methyl 2H,2H,3H,3H-perfluoroheptanoate]
Description: as §1

[2] = compound: C=CC(F)(F)C(F)(F)C(F)(F)C(F)(F)C(F)(F)C(F)(F)C(F)(F)C(F)(F)C=C [1,8-Divinylperfluorooctane]
Description: as §1

[3] = compound: O=C(O)C(F)(F)OC(F)(F)C(F)(F)OC(F)(F)F [Perfluoro-3,6-dioxaheptanoic acid]
Description: as §1

[4] = compound: O=C(O)C(F)(F)OC(F)(F)C(F)(F)OC(F)(F)C(=O)O [Perfluoro-3,6-dioxaoctane-1,8-dioic acid]
Description: as §1

[5] = compound: FC(F)(F)C(F)(F)C(F)(F)C(F)(F)C(F)(F)C(F)(F)C(F)(F)C(F)(F)CCS [2-(Perfluorooctyl)ethanthiol]
Description: as §1

Row | Test System | level (log10) (Perfluoroheptanoic acid; 6700 nM) | level (log10) (Perfluoroheptanoic acid; 20000 nM) | level (log10) (Perfluoroheptanoic acid; 60000 nM) | level (log10) (Perfluorobutanoic acid; 6700 nM) | level (log10) (Perfluorobutanoic acid; 20000 nM) | level (log10) (Perfluorobutanoic acid; 60000 nM) | level (log10) ([1]; 6700 nM) | level (log10) ([1]; 20000 nM) | level (log10) ([1]; 60000 nM) | level (log10) ([2]; 6700 nM) | level (log10) ([2]; 20000 nM) | level (log10) ([3]; 6700 nM) | level (log10) ([3]; 20000 nM) | level (log10) ([3]; 60000 nM) | level (log10) ([4]; 6700 nM) | level (log10) ([4]; 20000 nM) | level (log10) ([4]; 60000 nM) | level (log10) ([5]; 6700 nM) | level (log10) ([5]; 20000 nM)
1 | BE3C:CD87/uPAR | -0.0275 ± 0.026 | -0.049 ± 0.033 | -0.05 ± 0.054 | -0.012 ± 0.0099 | 0.0015 ± 0.013 | -0.015 ± 0.013 | -0.003 ± 0.0014 | -0.0005 ± 0.00071 | -0.0185 ± 0.022 | 0.0045 ± 0.021 | -0.029 ± 0.025 | 0.0055 ± 0.021 | 0.0075 ± 0.0021 | -0.0045 ± 0.015 | -0.0105 ± 0.005 | -0.0215 ± 0.012 | 0.008 ± 0.03 | 0.009 ± 0.014 | 0.027 ± 0.0042
2 | BT:PBMC Cytotoxicity | -0.0175 ± 0.0064 | 0.001 ± 0.0057 | 0.063 ± 0.0014 | 0.003 ± 0.011 | 0.0255 ± 0.018 | -0.0175 ± 0.00071 | 0.032 ± 0.014 | 0.0045 ± 0.0092 | 0.0045 ± 0.021 | 0.0285 ± 0.0035 | 0.019 ± 0.0042 | -0.011 ± 0.0099 | 0 ± 0.017 | 0.0015 ± 0.071 | -0.018 ± 0.057 | -0.0495 ± 0.0064 | -0.0125 ± 0.012 | -0.0395 ± 0.012 | 0.02 ± 0.0028
3 | SAg:CD62E/E-Selectin | -0.025 ± 0.0085 | 0.011 | 0.008 ± 0.013 | -0.026 ± 0.0042 | -0.024 ± 0.0057 | -0.024 ± 0.013 | -0.014 ± 0.014 | -0.03 ± 0.0071 | 0.007 ± 0.0057 | -0.0205 ± 0.012 | -0.0195 ± 0.005 | -0.0015 ± 0.0021 | 0.001 ± 0.0042 | 0.021 ± 0.0057 | 0.007 ± 0.0085 | 0.011 ± 0.0028 | 0.011 ± 0.021 | -0.0115 ± 0.0064 | -0.0015 ± 0.022
4 | 3C:HLA-DR | 0.006 ± 0.017 | 0.004 ± 0.013 | 0.034 ± 0.047 | -0.0035 ± 0.028 | -0.0215 ± 0.00071 | -0.0115 ± 0.021 | -0.026 ± 0.0071 | 0.03 ± 0.027 | 0.0085 ± 0.032 | -0.0185 ± 0.028 | -0.007 ± 0.013 | -0.035 ± 0.033 | -0.0075 ± 0.0078 | -0.0115 ± 0.021 | 0.008 ± 0.018 | -0.037 ± 0.013 | -0.0065 ± 0.012 | -0.015 ± 0.018 | -0.0235 ± 0.0078
5 | SAg:CXCL8/IL-8 | 0.008 ± 0.011 | 0.0115 ± 0.0078 | 0.0715 ± 0.043 | -0.0025 ± 0.0092 | -0.005 ± 0.0085 | 0.0335 ± 0.028 | -0.007 ± 0.05 | -0.0085 ± 0.026 | 0.0165 ± 0.033 | -0.0315 ± 0.013 | 0.006 ± 0.05 | 0.0055 ± 0.0035 | 0.034 ± 0.0071 | 0.0735 ± 0.04 | -0.006 ± 0.0085 | -0.0015 ± 0.0064 | 0.0155 ± 0.035 | -0.0215 ± 0.032 | 0.027 ± 0.082
6 | SAg:CXCL9/MIG | -0.0125 ± 0.0078 | 0.0015 ± 0.0064 | 0.0105 ± 0.011 | -0.0045 ± 0.005 | -0.003 ± 0.016 | -0.0065 ± 0.005 | -0.0195 ± 0.012 | -0.0095 ± 0.0021 | -0.0065 ± 0.018 | -0.0115 ± 0.0092 | 0.0055 ± 0.018 | 0.006 ± 0.014 | 0.001 ± 0.014 | 0.0055 ± 0.0078 | -0.0065 ± 0.005 | 0.004 ± 0.0057 | -0.001 ± 0.013 | 0.0015 ± 0.016 | 0.01 ± 0.0042
7 | LPS:IL-1alpha | -0.002 ± 0.0057 | -0.0265 ± 0.0078 | 0.006 ± 0.047 | -0.0225 ± 0.032 | -0.0305 ± 0.019 | -0.0035 ± 0.016 | -0.0265 ± 0.015 | -0.0185 ± 0.018 | 0.0235 ± 0.016 | 0.0095 ± 0.019 | 0.0295 ± 0.012 | -0.0605 ± 0.0035 | -0.0075 ± 0.0064 | -0.0055 ± 0.036 | -0.032 ± 0.013 | -0.0125 ± 0.013 | 0.0195 ± 0.049 | -0.045 ± 0.0042 | -0.012 ± 0.055
8 | 3C:CD87/uPAR | 0.0015 ± 0.0021 | -0.0115 ± 0.026 | 0.0045 ± 0.013 | 0.0005 ± 0.005 | 0.0105 ± 0.015 | -0.0065 ± 0.011 | -0.028 ± 0.047 | -0.022 ± 0.072 | 0.0015 ± 0.077 | -0.0065 ± 0.022 | 0.0105 ± 0.025 | -0.0205 ± 0.00071 | -0.0015 ± 0.019 | -0.015 ± 0.028 | 0.016 ± 0.044 | -0.013 ± 0.013 | 0.0195 ± 0.011 | -0.0175 ± 0.0021 | -0.0215 ± 0.0035
